This passage reports melting point results from US7718808B2, “Thiazole derivatives” (Kyowa Hakko Kirin Co., Ltd., priority 2003, dated 2010).

One may read the melting point as the temperature, or range, at which the solid turns liquid.

As for `O=C(c1cccnc1)c1sc(NC(=O)C2CC2)nc1-c1ccco1` [Compound 305, N-[4-(2-Furyl)-5-(pyridin-3-ylcarbonyl)thiazol-2-yl]cyclopropanecarboxamide], the melting point lay in the range of 231 to 233 °C.
The molecule `N#Cc1ccc(C(=O)Nc2nc(-c3ccco3)c(C(=O)c3cccnc3)s2)cc1` [Compound 306, 4-Cyano-N-[4-(2-furyl)-5-(pyridin-3-ylcarbonyl)thiazol-2-yl]benzamide] came in with a melting point of 288 to 290 °C.
The same measure for `O=C(Nc1nc(-c2ccco2)c(C(=O)c2cccnc2)s1)c1ccco1` [Compound 307, N-[4-(2-Furyl)-5-(pyridin-3-ylcarbonyl)thiazol-2-yl]furan-2-carboxamide]: 234 to 236 °C; for `Cc1ncccc1C(=O)c1sc(NC(=O)c2ccncc2)nc1-c1ccco1` [Compound 310, N-[4-(2-Furyl)-5-(2-methylpyridin-3-ylcarbonyl)thiazol-2-yl]pyridine-4-carboxamide]: 230 to 234 °C.
Turning to `Cc1ccc(C(=O)c2sc(NC(=O)c3ccncc3)nc2-c2ccco2)cn1` [Compound 313, N-[4-(2-Furyl)-5-(2-methylpyridin-5-ylcarbonyl)thiazol-2-yl]pyridine-4-carboxamide], the melting point was 230 to 232 °C (dec.).
Molecule `Cc1ccc(C(=O)c2sc(NC(=O)c3ccc(C#N)cc3)nc2-c2ccco2)cn1` [Compound 314, 4-Cyano-N-[4-(2-furyl)-5-(2-methylpyridin-5-ylcarbonyl)thiazol-2-yl]benzamide] had a melting point of 261 to 265 °C.
In turn, `Cc1ccc(C(=O)c2sc(NC(=O)c3ccco3)nc2-c2ccco2)cn1` [Compound 315, N-[4-(2-Furyl)-5-(2-methylpyridin-5-ylcarbonyl)thiazol-2-yl]furan-2-carboxamide] returned a melting point of 197 to 209 °C.
For `Cc1ccc(C(=O)c2sc(NC(=O)c3ccoc3)nc2-c2ccco2)cn1` [Compound 316, N-[4-(2-Furyl)-5-(2-methylpyridin-5-ylcarbonyl)thiazol-2-yl]furan-3-carboxamide] the value was 229 to 231 °C; for `COc1ccc(C(=O)c2sc(NC(=O)c3ccncc3)nc2-c2ccco2)cn1` [Compound 319, N-[4-(2-Furyl)-5-(2-methoxypyridin-5-ylcarbonyl)thiazol-2-yl]pyridine-4-carboxamide], 246 to 257 °C (dec.); for `O=C(Nc1nc(-c2ccco2)c(C(=O)c2ccc(N3CCOCC3)nc2)s1)c1ccncc1` [Compound 324, N-[4-(2-Furyl)-5-(2-morpholinopyridin-5-ylcarbonyl)thiazol-2-yl]pyridine-4-carboxamide], 195 to 205 °C.
For `CN1CCN(c2ccc(C(=O)c3sc(NC(=O)c4ccncc4)nc3-c3ccco3)cn2)CC1` [Compound 325, N-(4-(2-Furyl)-5-[2-(4-methylpiperazin-1-yl)pyridin-5-ylcarbonyl]thiazol-2-yl)pyridine-4-carboxamide] the value was 195 to 205 °C; for `O=C(Nc1nc(-c2ccco2)c(C(=O)c2ccc(N3CCC(O)CC3)nc2)s1)c1ccncc1` [Compound 326, N-{4-(2-Furyl)-5-[2-(4-hydroxypiperidino)pyridin-5-ylcarbonyl]thiazol-2-yl}pyridine-4-carboxamide], 264 to 268 °C; for `O=C(Nc1nc(-c2ccco2)c(C(=O)c2ccncc2)s1)c1ccncc1` [Compound 329, N-[4-(2-Furyl)-5-(pyridin-4-ylcarbonyl)thiazol-2-yl]pyridine-4-carboxamide], 276 to 285 °C.
The same measure for `Cc1cc(C(=O)c2sc(NC(=O)c3ccncc3)nc2-c2ccco2)ccn1` [Compound 332, N-[4-(2-Furyl)-5-(2-methylpyridin-4-ylcarbonyl)thiazol-2-yl]pyridine-4-carboxamide]: 223 to 225 °C.
In turn, `Cc1cc(C(=O)Nc2nc(-c3ccco3)c(C(=O)c3ccnc(C)c3)s2)ccn1` [Compound 333, N-[4-(2-Furyl)-5-(2-methylpyridin-4-ylcarbonyl)thiazol-2-yl]-2-methylpyridine-4-carboxamide] yielded a melting point of 205 to 229 °C.
The same measure for `COc1cc(C(=O)c2sc(NC(=O)c3ccncc3)nc2-c2ccco2)ccn1` [Compound 336, N-[4-(2-Furyl)-5-(2-methoxypyridin-4-ylcarbonyl)thiazol-2-yl]pyridine-4-carboxamide]: 237 to 239 °C; for `O=C(Nc1nc(-c2ccco2)c(C(=O)c2ccnc(N3CCOCC3)c2)s1)c1ccncc1` [Compound 339, N-[4-(2-Furyl)-5-(2-morpholinopyridin-4-ylcarbonyl)thiazol-2-yl]pyridine-4-carboxamide]: 270 to 273 °C.
The same measure for `O=C(Nc1nc(-c2ccco2)c(C(=O)c2ccco2)s1)c1ccncc1` [Compound 342, N-[4-(2-Furyl)-5-(furan-2-ylcarbonyl)thiazol-2-yl]pyridine-4-carboxamide]: 245 to 248 °C; for `Cc1ccc(C(=O)c2sc(NC(=O)c3ccncc3)nc2-c2ccco2)o1` [Compound 343, N-[4-(2-Furyl)-5-(5-methylfuran-2-ylcarbonyl)thiazol-2-yl]pyridine-4-carboxamide]: 185 to 189 °C.
The same measure for `O=C(Nc1nc(-c2ccco2)c(C(=O)c2ccoc2)s1)c1ccncc1` [Compound 346, N-[4-(2-furyl)-5-(furan-3-ylcarbonyl)thiazol-2-yl]pyridine-4-carboxamide]: 217 to 231 °C; for `O=C(Nc1nc(-c2ccco2)c(C(=O)c2cccs2)s1)c1ccncc1` [Compound 347, N-[4-(2-Furyl)-5-(thiophen-2-ylcarbonyl)thiazol-2-yl]pyridine-4-carboxamide]: 208 to 210 °C.
As for `Cc1cnc(C(=O)c2sc(NC(=O)c3ccncc3)nc2-c2ccco2)s1` [Compound 349, N-[4-(2-Furyl)-5-(5-methylthiazol-2-ylcarbonyl)thiazol-2-yl]pyridine-4-carboxamide], the melting point was 275 to 277 °C (dec.).
For `Cc1csc(C(=O)c2sc(NC(=O)c3ccncc3)nc2-c2ccco2)n1` [Compound 350, N-[4-(2-Furyl)-5-(4-methylthiazol-2-ylcarbonyl)thiazol-2-yl]pyridine-4-carboxamide] the value was 250 to 255 °C; for `Cc1nc(C(=O)c2sc(NC(=O)c3ccncc3)nc2-c2ccco2)sc1C` [Compound 351, N-[5-(4,5-Dimethylthiazol-2-ylcarbonyl)-4-(2-furyl)thiazol-2-yl]pyridine-4-carboxamide], 270 to 272 °C (dec.).
For `Cn1ccc(C(=O)c2sc(NC(=O)c3ccncc3)nc2-c2ccco2)c1` [Compound 354, N-[4-(2-Furyl)-5-(1-methylpyrrol-3-ylcarbonyl)thiazol-2-yl]pyridine-4-carboxamide] the value was 209 to 211 °C; for `CCn1ccc(C(=O)c2sc(NC(=O)c3ccncc3)nc2-c2ccco2)c1` [Compound 355, N-[5-(1-Ethylpyrrol-3-ylcarbonyl)-4-(2-furyl)thiazol-2-yl]pyridine-4-carboxamide], 127 to 134 °C.
Turning to `O=C(Nc1nc(-c2ccco2)c(C(=O)c2ccn(Cc3ccccc3)c2)s1)c1ccncc1` [Compound 356, N-[5-(1-Benzylpyrrol-3-ylcarbonyl)-4-(2-furyl)thiazol-2-yl]pyridine-4-carboxamide], the melting point fell in the range of 175 to 178 °C.
For the molecule `Cn1cc(C(=O)c2sc(NC(=O)c3ccncc3)nc2-c2ccco2)ccc1=O` [Compound 360, N-[4-(2-Furyl)-5-(1-methyl-2-oxo-1,2-dihydropyridin-5-ylcarbonyl)thiazol-2-yl]pyridine-4-carboxamide], the melting point lay within 294 to 295 °C.
For `CCn1cc(C(=O)c2sc(NC(=O)c3ccncc3)nc2-c2ccco2)ccc1=O` [Compound 362, N-[5-(1-Ethyl-2-oxo-1,2-dihydropyridin-5-ylcarbonyl)-4-(2-furyl)thiazol-2-yl]pyridine-4-carboxamide] the value was 295 to 296 °C; for `O=C(Nc1nc(-c2ccco2)c(C(=O)c2ccc(=O)n(Cc3ccccc3)c2)s1)c1ccncc1` [Compound 364, N-[5-(1-Benzyl-2-oxo-1,2-dihydropyridin-5-ylcarbonyl)-4-(2-furyl)thiazol-2-yl]pyridine-4-carboxamide], 265 to 282 °C (dec.); for `Cn1ccc(C(=O)c2sc(NC(=O)c3ccncc3)nc2-c2ccco2)cc1=O` [Compound 367, N-[4-(2-Furyl)-5-(1-methyl-2-oxo-1,2-dihydropyridin-4-ylcarbonyl)thiazol-2-yl]pyridine-4-carboxamide], 243 to 255 °C (dec.).
Turning to `CCn1ccc(C(=O)c2sc(NC(=O)c3ccncc3)nc2-c2ccco2)cc1=O` [Compound 369, N-[5-(1-Ethyl-2-oxo-1,2-dihydropyridin-4-ylcarbonyl)-4-(2-furyl)thiazol-2-yl]pyridine-4-carboxamide], the melting point lay in the range of 277 to 281 °C.
For `O=C(Nc1nc(-c2ccco2)c(C(=O)c2ccn(Cc3ccccc3)c(=O)c2)s1)c1ccncc1` [Compound 371, N-[5-(1-Benzyl-2-oxo-1,2-dihydropyridin-4-ylcarbonyl)-4-(2-furyl)thiazol-2-yl]pyridine-4-carboxamide] the value was 288 to 291 °C; for `O=C(Nc1nc(-c2ccco2)c(C(=O)c2cnccn2)s1)c1ccncc1` [Compound 374, N-[4-(2-Furyl)-5-(pyrazin-2-ylcarbonyl)thiazol-2-yl]pyridine-4-carboxamide], above 300 °C.
The same measure for `O=C(Nc1nc(-c2ccco2)c(C(=O)c2ccncn2)s1)c1ccncc1` [Compound 375, N-[4-(2-Furyl)-5-(pyrimidin-4-ylcarbonyl)thiazol-2-yl]pyridine-4-carboxamide]: above 300 °C; for `O=C(Nc1nc(-c2ccco2)c(C(=O)c2cccnn2)s1)c1ccncc1` [Compound 376, N-[4-(2-Furyl)-5-(pyridazin-3-ylcarbonyl)thiazol-2-yl]pyridine-4-carboxamide]: 280 to 281 °C.
The same measure for `CC(=O)c1sc(NC(=O)c2ccncc2)nc1-c1ccco1` [Compound 377, N-[5-Acetyl-4-(2-furyl)thiazol-2-yl]pyridine-4-carboxamide]: 252 to 259 °C (dec.).
